From ChEMBL document CHEMBL1201862, “PubChem BioAssay data set” (2004)
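Grown in 96-well plates, cells were treated for 48 hours with each compound at five concentrations. Insufficient inhibition: endpoint recorded as highest concentration tested. GI50: concentration for 50% inhibition of growth.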 The source made the active and inactive calls. No stated cut-off is given here; in the data, active = GI50 up to about 1.1 µM and inactive = higher.

Tests used:
Assay in all cases: NCI-60 cell line screen, 48 h
[1] = test system: 786-0
[2] = test system: A498
[3] = test system: CAKI-1
[4] = test system: EKVX
[5] = test system: HCT-15
[6] = test system: Hs-578T
[7] = test system: LOX IMVI
[8] = test system: M14
[9] = test system: MDA-N
[10] = test system: NCI-H226
[11] = test system: OVCAR-3
[12] = test system: PC-3
[13] = test system: SF-295
[14] = test system: SF-539
[15] = test system: SK-MEL-28
[16] = test system: SN12C
[17] = test system: SNB-75
[18] = test system: SW-620

Structure (SMILES)	GI50 [1]	GI50 [2]	GI50 [3]	GI50 [4]	GI50 [5] [µM]	GI50 [6]	GI50 [7]	GI50 [8]	GI50 [9]	GI50 [10]	GI50 [11]	GI50 [12]	GI50 [13]	GI50 [14]	GI50 [15]	GI50 [16]	GI50 [17]	GI50 [18]
CCCCCCCCCCCCCCCC(=O)OCC1CCCN2CCCCC12 (centres undefined)	> 100 µM (inactive)	> 100 µM (inactive)	> 100 µM (inactive)	> 100 µM (inactive)	> 100	> 100 µM (inactive)	> 100 µM (inactive)	> 100 µM (inactive)	> 100 µM (inactive)	> 100 µM (inactive)	> 100 µM (inactive)	> 100 µM (inactive)	> 100 µM (inactive)	> 100 µM (inactive)	> 100 µM (inactive)	> 100 µM (inactive)	> 100 µM (inactive)	> 100 µM (inactive)
S=C(N/N=C\C=N/NC(=S)N1CCCCC1)N1CCCCC1	0.525 µM (active)	1.34 µM (inactive)	0.619 µM (active)	0.515 µM (active)	0.0802	0.879 µM (active)	0.32 µM (active)	0.208 µM (active)	> 26.1 µM (inactive)	0.489 µM (active)	0.251 µM (active)	0.387 µM (active)	0.155 µM (active)	0.435 µM (active)	0.682 µM (active)	0.723 µM (active)	0.731 µM (active)	0.0977 µM (active)
O=C(C1OC1c1ccc(F)cc1)C12CC3CC(CC(C3)C1)C2 (centres undefined)	15.2 µM (inactive)	28.2 µM (inactive)	25 µM (inactive)	19.3 µM (inactive)	15.5	23.2 µM (inactive)	2.85 µM (inactive)	15.7 µM (inactive)	12.7 µM (inactive)	20.2 µM (inactive)	14.9 µM (inactive)	30.7 µM (inactive)	22.6 µM (inactive)	21.2 µM (inactive)	24.4 µM (inactive)	16.4 µM (inactive)	31 µM (inactive)	17.2 µM (inactive)
CCOC(=O)c1[nH]cc(C)c1-c1cccn1-c1ccc(Cl)cc1[N+](=O)[O-]	18.2 µM (inactive)	35.3 µM (inactive)	31.7 µM (inactive)	20.6 µM (inactive)	32.1	15.8 µM (inactive)	17.5 µM (inactive)	14.9 µM (inactive)	22.2 µM (inactive)	16.7 µM (inactive)	12 µM (inactive)	20.1 µM (inactive)	28.2 µM (inactive)	19.2 µM (inactive)	22.8 µM (inactive)	24.7 µM (inactive)	19.1 µM (inactive)	23.1 µM (inactive)
COc1ccccc1-c1nc(-c2ccccc2O)n[nH]1	> 100 µM (inactive)	> 100 µM (inactive)	> 100 µM (inactive)		45.9	> 100 µM (inactive)	71.1 µM (inactive)	> 100 µM (inactive)	> 100 µM (inactive)	> 100 µM (inactive)	> 100 µM (inactive)	> 100 µM (inactive)	> 100 µM (inactive)	> 100 µM (inactive)	> 100 µM (inactive)	> 100 µM (inactive)	> 100 µM (inactive)	> 100 µM (inactive)
CCCCc1ccc(NC(=N)N)cc1	17.7 µM (inactive)	35.6 µM (inactive)	28.4 µM (inactive)	30 µM (inactive)	33	37.1 µM (inactive)	40 µM (inactive)	24.2 µM (inactive)	27.7 µM (inactive)	23.7 µM (inactive)	24.5 µM (inactive)	23.8 µM (inactive)	23.9 µM (inactive)	> 10 µM (inactive)	58.2 µM (inactive)	40 µM (inactive)		44.5 µM (inactive)
CCN(CC)CC1CCCCN1CC(=O)N1c2ccccc2NC(=O)CC1C (centres undefined)	> 100 µM (inactive)	> 100 µM (inactive)	> 100 µM (inactive)	> 100 µM (inactive)	> 100	> 100 µM (inactive)	> 100 µM (inactive)	> 100 µM (inactive)	> 100 µM (inactive)	> 100 µM (inactive)	> 100 µM (inactive)	> 100 µM (inactive)	> 100 µM (inactive)	> 100 µM (inactive)	> 100 µM (inactive)	> 100 µM (inactive)		> 100 µM (inactive)
COc1cc(OC)c(OC)cc1/C=C/c1ccccn1	> 10 µM (inactive)	> 10 µM (inactive)	> 10 µM (inactive)	> 10 µM (inactive)	> 10	> 10 µM (inactive)	> 10 µM (inactive)	> 10 µM (inactive)	> 10 µM (inactive)	> 10 µM (inactive)	> 10 µM (inactive)	> 10 µM (inactive)	> 10 µM (inactive)	> 10 µM (inactive)	> 10 µM (inactive)	> 10 µM (inactive)	> 10 µM (inactive)	> 10 µM (inactive)
CN1CN(c2ccccc2)C2(CCN(CCCN(C)c3ccc(F)cc3)CC2)C1=O	18.6 µM (inactive)	29.4 µM (inactive)	30.1 µM (inactive)		22.3	18.7 µM (inactive)	15.8 µM (inactive)	16.2 µM (inactive)	16.3 µM (inactive)	19.1 µM (inactive)	16 µM (inactive)	23.4 µM (inactive)	14.9 µM (inactive)	22.5 µM (inactive)	20.9 µM (inactive)	34.5 µM (inactive)	16.9 µM (inactive)	17.8 µM (inactive)
COc1cc(/C=C2\CC3C4CC[C@H]5C[C@@H](O)CC[C@]5(C)C4CC[C@]3(C)C2=O)cc(OC)c1OC (some centres undefined)	16 µM (inactive)	12.1 µM (inactive)	9.4 µM (inactive)	12 µM (inactive)	9.59	14.4 µM (inactive)	12.6 µM (inactive)	17.4 µM (inactive)	19.9 µM (inactive)	13.6 µM (inactive)		5.48 µM (inactive)	4.69 µM (inactive)	22.6 µM (inactive)	32.7 µM (inactive)	15.2 µM (inactive)	14.4 µM (inactive)	24.8 µM (inactive)
COc1cccc(/C=N/n2c(C)n[nH]c2=O)c1	> 100 µM (inactive)	25.5 µM (inactive)	60.5 µM (inactive)	32 µM (inactive)	> 100	16.8 µM (inactive)		> 100 µM (inactive)	> 100 µM (inactive)	95.1 µM (inactive)	25.9 µM (inactive)	> 100 µM (inactive)	> 100 µM (inactive)	> 100 µM (inactive)	> 100 µM (inactive)	> 100 µM (inactive)	58.7 µM (inactive)	> 100 µM (inactive)
Cc1cc(OC2OC(CO)C(O)C(O)C2O)ccc1O (centres undefined)	> 100 µM (inactive)	> 100 µM (inactive)	> 100 µM (inactive)	> 100 µM (inactive)	> 100	> 100 µM (inactive)	> 100 µM (inactive)	> 100 µM (inactive)	> 100 µM (inactive)		> 100 µM (inactive)	> 100 µM (inactive)	> 100 µM (inactive)	> 100 µM (inactive)	> 100 µM (inactive)	> 100 µM (inactive)	> 100 µM (inactive)	> 100 µM (inactive)
